Laboratory results from ChEMBL document CHEMBL1201862, “PubChem BioAssay data set” (2004).
Calls of active or inactive are those of the source.

Tests used:
[1] = target: T1, Leucine aminopeptidase (Plasmodium falciparum 3D7, UniProt Q8IL11); assay: P. falciparum M17LAP inhibitors, primary screen, biochemical, fluorogenic H-Leu-NHMec substrate, 1536-well (AID 1619); type: functional
T1 sequence (Q8IL11 whole entry): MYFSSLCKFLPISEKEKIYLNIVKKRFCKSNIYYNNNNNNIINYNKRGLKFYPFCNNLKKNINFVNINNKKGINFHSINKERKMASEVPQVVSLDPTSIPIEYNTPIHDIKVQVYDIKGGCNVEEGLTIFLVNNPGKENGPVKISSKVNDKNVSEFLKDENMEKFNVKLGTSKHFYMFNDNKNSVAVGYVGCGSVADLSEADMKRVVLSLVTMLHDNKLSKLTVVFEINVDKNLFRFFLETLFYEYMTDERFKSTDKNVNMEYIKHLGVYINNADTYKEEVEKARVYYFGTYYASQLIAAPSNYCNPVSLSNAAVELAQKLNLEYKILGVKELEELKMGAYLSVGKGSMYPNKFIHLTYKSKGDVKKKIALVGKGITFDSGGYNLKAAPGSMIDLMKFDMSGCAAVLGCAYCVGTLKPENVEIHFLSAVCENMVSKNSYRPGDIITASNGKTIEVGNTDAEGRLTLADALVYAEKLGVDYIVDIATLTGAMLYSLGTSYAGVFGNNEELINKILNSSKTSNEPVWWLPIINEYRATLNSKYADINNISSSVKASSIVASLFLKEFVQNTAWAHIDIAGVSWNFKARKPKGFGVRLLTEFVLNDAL

[2] = target: T2, Fatty acid synthase (Homo sapiens, UniProt P49327); assay: inhibition of human FAS-TE enzyme activity – biochemical, endpoint fluorescence intensity, uHTS hits, dose response (AID 624327); type: functional;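 note: fluorescence from hydrolysis of an O-methyl fluorescein acyl ester substrate by the enzyme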
T2 sequence (P49327 whole entry): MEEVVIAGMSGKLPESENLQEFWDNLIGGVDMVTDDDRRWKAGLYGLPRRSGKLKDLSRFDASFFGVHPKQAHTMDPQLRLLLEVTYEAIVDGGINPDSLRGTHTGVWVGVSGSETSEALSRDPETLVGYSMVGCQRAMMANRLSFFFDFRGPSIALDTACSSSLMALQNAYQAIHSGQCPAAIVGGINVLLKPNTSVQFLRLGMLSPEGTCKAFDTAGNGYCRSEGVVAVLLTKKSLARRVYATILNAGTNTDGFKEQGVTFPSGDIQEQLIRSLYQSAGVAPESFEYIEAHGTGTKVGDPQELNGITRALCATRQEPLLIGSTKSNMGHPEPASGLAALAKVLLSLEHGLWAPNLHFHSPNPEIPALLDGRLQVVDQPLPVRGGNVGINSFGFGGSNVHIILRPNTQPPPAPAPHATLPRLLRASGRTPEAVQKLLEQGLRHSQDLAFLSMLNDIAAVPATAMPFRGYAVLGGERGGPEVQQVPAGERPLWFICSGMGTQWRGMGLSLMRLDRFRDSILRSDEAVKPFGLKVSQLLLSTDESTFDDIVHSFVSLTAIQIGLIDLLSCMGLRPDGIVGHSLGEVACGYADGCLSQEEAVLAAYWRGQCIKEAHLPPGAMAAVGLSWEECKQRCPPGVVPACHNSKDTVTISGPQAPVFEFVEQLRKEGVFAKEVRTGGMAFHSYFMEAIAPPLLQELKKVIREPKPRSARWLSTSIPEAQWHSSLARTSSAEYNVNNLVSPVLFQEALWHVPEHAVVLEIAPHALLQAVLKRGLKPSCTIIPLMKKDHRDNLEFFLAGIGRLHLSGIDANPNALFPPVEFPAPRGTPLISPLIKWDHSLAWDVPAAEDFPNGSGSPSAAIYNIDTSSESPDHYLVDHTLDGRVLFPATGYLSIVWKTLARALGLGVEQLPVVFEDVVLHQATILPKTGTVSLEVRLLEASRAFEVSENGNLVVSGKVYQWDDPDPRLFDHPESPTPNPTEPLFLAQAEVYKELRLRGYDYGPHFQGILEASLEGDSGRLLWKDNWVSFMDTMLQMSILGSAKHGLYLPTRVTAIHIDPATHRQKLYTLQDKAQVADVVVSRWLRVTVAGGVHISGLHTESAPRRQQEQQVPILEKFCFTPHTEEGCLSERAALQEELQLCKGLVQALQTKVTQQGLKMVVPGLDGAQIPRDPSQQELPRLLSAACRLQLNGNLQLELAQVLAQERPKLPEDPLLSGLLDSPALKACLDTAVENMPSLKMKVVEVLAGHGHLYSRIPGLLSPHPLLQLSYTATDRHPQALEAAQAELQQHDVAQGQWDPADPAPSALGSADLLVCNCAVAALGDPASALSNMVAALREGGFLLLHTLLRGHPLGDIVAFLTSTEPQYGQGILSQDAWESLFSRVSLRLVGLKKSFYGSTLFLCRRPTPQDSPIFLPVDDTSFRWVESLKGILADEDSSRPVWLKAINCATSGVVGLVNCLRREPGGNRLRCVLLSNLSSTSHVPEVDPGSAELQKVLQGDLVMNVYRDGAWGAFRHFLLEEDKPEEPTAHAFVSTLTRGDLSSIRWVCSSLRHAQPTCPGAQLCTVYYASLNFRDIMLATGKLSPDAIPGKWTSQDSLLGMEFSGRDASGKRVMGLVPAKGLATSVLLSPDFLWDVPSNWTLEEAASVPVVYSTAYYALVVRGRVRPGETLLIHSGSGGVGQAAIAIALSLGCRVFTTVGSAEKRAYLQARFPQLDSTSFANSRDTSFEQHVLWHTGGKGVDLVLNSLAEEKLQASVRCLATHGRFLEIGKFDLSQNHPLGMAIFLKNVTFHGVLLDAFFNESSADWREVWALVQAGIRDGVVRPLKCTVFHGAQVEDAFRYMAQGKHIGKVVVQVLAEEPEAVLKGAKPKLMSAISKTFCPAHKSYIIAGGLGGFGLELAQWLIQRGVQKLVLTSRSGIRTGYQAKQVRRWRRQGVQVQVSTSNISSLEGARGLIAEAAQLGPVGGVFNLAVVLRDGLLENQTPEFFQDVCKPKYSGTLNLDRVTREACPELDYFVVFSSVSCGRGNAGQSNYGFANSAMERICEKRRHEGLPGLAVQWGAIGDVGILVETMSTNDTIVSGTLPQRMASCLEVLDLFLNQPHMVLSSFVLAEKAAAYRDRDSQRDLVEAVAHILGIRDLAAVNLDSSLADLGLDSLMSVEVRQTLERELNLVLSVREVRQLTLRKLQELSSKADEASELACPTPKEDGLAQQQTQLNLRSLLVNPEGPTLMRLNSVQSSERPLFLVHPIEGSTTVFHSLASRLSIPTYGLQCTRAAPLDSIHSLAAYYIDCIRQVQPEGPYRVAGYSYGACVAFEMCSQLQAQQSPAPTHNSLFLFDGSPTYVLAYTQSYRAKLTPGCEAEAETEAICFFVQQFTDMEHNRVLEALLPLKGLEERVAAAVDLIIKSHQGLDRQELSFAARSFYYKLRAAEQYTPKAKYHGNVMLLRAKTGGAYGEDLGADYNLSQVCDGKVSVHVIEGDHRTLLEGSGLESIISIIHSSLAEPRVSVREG

[3] = target: T2, Fatty acid synthase; assay: inhibition of human FAS-TE enzyme activity – biochemical, kinetic fluorescence intensity, dose response (AID 624326); type: functional;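 note: rate of fluorescence rise from hydrolysis of a fluorogenic O-methyl fluorescein ester substrate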
[4] = target: T3, Heat shock factor protein 1 (Mus musculus, UniProt P38532); assay: enhancement of HSF1-driven luciferase signal – cell-based, NIH3T3, luminescence, dose retest, confirmation (AID 435004); type: functional;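 note: stress induced by proteasome inhibitor MG132 added 30 min after compound; luciferase reporter driven by HSF1 response element in NIH3T3 cells; actives raise luminescence as potentiators of the MG132 stress response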
T3 sequence (P38532 whole entry): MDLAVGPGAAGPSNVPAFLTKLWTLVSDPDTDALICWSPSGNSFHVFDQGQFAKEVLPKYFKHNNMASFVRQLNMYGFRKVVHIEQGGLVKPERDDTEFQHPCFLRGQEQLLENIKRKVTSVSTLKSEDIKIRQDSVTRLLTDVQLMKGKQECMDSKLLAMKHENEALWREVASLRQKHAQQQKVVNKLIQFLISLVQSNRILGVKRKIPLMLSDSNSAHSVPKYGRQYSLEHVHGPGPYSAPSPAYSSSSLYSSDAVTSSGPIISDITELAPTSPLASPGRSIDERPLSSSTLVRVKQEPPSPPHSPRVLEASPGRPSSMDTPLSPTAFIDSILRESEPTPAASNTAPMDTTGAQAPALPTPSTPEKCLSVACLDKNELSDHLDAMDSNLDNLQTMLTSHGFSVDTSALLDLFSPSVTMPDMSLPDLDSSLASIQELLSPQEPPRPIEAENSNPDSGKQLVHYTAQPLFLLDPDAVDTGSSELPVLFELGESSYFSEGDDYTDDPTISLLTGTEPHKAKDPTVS

[5] = tested on: BJ; assay: cells; type: functional, cell-based; details: Homo sapiens
[6] = luciferase reporter signal suppression in cells – H4 neuroglioma cells, luminescence, dose response (AID 1990); type: functional, cell-based
[7] = Luminescence Cell-Based Dose Response HTS to Identify Inhibitors of 5'UTR Stem-Loop Driven Prion Protein mRNA Translation in H4 Neuroglioblastoma Cells. [Related pubchem assays: 1827 (Project Summary), 1813 (Primary HTS)]; type: functional
[8] = DRD fibroblast viability loss – cell-based, non-viral oncogenic, luminescence, dose response (AID 1934); type: functional; details: Homo sapiens
[9] = tested on: BJ; assay: BJ-TERT fibroblast viability loss – cell-based, RAS-independent, luminescence, dose response (AID 1933); type: functional; details: Homo sapiens
[10] = alpha-synuclein stem-loop luciferase translation blockers – H4 neuroglioma cells, luminescence, confirmation (AID 1988); type: functional, cell-based
[11] = tested on: BJ; assay: BJ-TERT-LT-ST fibroblast viability loss – cell-based, RAS-independent, luminescence, dose response (AID 1935); type: functional; details: Homo sapiens;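 note: BJ fibroblasts immortalized with TERT plus LT and ST oncogenes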
[12] = target: T4, Calpain-2 catalytic subunit (Sus scrofa, UniProt P43367); assay: m-calpain protease blockers, concentration series – biochemical, fluorogenic peptide substrate, dose response (AID 1420); type: functional
T4 sequence (P43367 whole entry): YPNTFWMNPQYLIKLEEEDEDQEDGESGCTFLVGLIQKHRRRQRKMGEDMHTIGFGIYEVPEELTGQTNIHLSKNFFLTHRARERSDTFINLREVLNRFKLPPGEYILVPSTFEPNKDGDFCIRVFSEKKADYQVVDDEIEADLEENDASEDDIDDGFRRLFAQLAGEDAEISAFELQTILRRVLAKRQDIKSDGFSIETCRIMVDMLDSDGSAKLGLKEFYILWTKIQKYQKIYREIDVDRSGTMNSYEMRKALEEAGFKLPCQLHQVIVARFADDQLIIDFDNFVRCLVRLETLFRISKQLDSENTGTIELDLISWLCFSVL

[13] = A cytotoxicity screen of small molecule inhibitors of the PhoP region in Salmonella typhi identified in the primary screen. [Related pubchem assays: 1850, 1864, 1985 ]; type: functional
[14] = tested on: Streptococcus sp. 'group A'; assay: Streptococcus pyogenes SK(-)GAS viability under kanamycin – luminescence, BacTiterGlo, confirmation, counter-screen for streptokinase expression inhibitor project, dose response (AID 1900); type: functional, organism-based
[15] = target: Induced myeloid leukemia cell differentiation protein Mcl-1 (Homo sapiens, UniProt Q07820); type: functional
Chain of Induced myeloid leukemia cell differentiation protein Mcl-1 (Q07820 whole entry): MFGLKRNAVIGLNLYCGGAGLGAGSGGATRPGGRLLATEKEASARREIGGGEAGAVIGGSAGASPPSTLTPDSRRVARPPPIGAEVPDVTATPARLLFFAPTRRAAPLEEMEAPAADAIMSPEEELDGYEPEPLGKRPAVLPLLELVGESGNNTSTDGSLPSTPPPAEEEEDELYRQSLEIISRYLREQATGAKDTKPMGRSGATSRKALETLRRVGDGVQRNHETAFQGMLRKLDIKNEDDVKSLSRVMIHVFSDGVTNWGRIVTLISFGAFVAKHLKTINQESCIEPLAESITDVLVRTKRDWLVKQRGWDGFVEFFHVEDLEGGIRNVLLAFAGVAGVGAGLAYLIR

[16] = tested on: Streptococcus; assay: GAS UMAA2166 growth inhibition – luminescence, BacTiterGlo, counter-screen for streptokinase expression inhibitor project, dose response (AID 1915); type: functional, organism-based;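 note: potency for reduction of bacterial viability or growth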
[17] = target: T5, DNA repair protein RAD52 homolog (Homo sapiens, UniProt P43351); type: functional, biochemical
T5 sequence (P43351 whole entry): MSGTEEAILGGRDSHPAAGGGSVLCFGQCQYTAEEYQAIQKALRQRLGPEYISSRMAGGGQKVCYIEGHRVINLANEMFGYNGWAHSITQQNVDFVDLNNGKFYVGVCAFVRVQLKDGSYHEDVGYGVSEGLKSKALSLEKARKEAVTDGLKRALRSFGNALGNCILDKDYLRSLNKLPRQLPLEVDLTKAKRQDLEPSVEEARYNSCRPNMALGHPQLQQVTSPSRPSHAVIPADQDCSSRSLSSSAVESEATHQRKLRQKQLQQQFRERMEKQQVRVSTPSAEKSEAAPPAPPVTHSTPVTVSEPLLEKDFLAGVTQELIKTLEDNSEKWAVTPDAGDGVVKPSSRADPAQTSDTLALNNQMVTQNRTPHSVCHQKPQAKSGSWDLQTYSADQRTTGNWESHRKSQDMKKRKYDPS

## O=C(Cn1cc(/C=N/O)c2ccccc21)N1CCOCC1
[1]
  IC50: 78.9 µM (active)

## CC(C(=O)NCCC1=CCCCC1)c1ccc([N+](=O)[O-])cc1 (stereo not given)
[2]
  IC50: 5.76 µM (active)
[3]
  IC50: 5.99 µM (active)

## O=C(O)CC12C[C@H]3C[C@@H](C1)CC(n1ncc(N4CCN(c5ccccc5)CC4)c(Cl)c1=O)(C3)C2
[1]
  IC50: 152 µM (active)
[4]
  EC50: > 260 µM (inactive)

## CCN(CC(=O)NCc1ccc(F)cc1)C(=O)/C=C/c1ccc(OC)c(S(=O)(=O)NC(C)C)c1
[5]
  EC50: 13.4 µM (active)
[6]
  EC50: > 120 µM (not active)
[7]
  EC50: > 120 µM (not active)
[8]
  EC50: 13.7 µM (inconclusive)
[9]
  EC50: 9.24 µM (inconclusive)
[10]
  EC50: 9.81 µM (active)
[11]
  EC50: 4.34 µM (inconclusive)

## Cc1c(OCC(=O)NC(Cc2ccc(Cl)cc2)C(=O)O)ccc2c(-c3ccccc3)cc(=O)oc12 (stereo not given)
[2]
  IC50: 6.45 µM (active)
[3]
  IC50: 13.3 µM (active)

## CC1Cc2ccccc2N1C(=O)COC(=O)C1(c2ccccc2F)CCCC1 (stereo not given)
[12]
  IC50: 7.23 µM (not active)

## Cc1cccc(NS(=O)(=O)c2ccc3c(c2)OCCO3)c1
[13]
  EC50: > 50 µM (active)

## CCOc1c(Br)cc(CNc2ccc3c(c2)OCCO3)cc1OC
[5]
  EC50: 17.7 µM (active)
[6]
  EC50: 4.32 µM (active)
[7]
  EC50: 3.63 µM (active)
[8]
  EC50: 1.29 µM (active)
[9]
  EC50: 2.12 µM (active)
[10]
  EC50: 0.31 µM (active)
[11]
  EC50: 1.41 µM (inconclusive)

## c1ccc(CN2CCC(N3CCN(Cc4ccc5c(c4)OCO5)CC3)CC2)cc1
[13]
  EC50: > 50 µM (active)

## O=C(O)c1ccc(N/N=C/c2ccc(-c3ccc(Cl)cc3Cl)o2)cc1
[14]
  EC50: 1.46 µM (active)
[2]
  IC50: 7.07 µM (active)
[3]
  IC50: 3.65 µM (active)
[15]
  IC50: 3.56 µM (active)
[16]
  EC50: 2.33 µM (active)

## COc1ccc([N+](=O)[O-])cc1NC(=O)C(C)OC(=O)/C=C/c1ccco1 (stereo not given)
[2]
  IC50: 3.26 µM (active)
[3]
  IC50: 6.45 µM (active)

## NC1(C(=O)O)CCCc2ccc(N(CCCl)CCCl)cc21 (stereo not given)
[17]
  AC50: 16 µM (active)

## O=C(N/N=C/c1ccc(N2CCCC2)c([N+](=O)[O-])c1)c1cccnc1
[13]
  EC50: > 50 µM (active)

## CCOC(=O)[C@H]1O[C@@H]1C(=O)N[C@@H](CC(C)C)C(=O)NCCC(C)C [ALOXISTATIN]
[12]
  IC50: 1.77 µM (active)

## CCN1CCN(CCCNC(=O)C2CCN(c3nnc(-n4c(C)ccc4C)s3)CC2)CC1
[17]
  AC50: 9.22 µM (active)
